Biological target: T1, GPX4 (Homo sapiens, UniProt P36969)
T1 sequence (P36969 1-170 isoform P36969-2): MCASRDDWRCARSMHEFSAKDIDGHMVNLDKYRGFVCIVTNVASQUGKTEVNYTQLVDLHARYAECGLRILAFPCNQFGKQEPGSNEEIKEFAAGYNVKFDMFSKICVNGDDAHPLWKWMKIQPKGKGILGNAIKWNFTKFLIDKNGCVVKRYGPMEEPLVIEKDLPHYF
Experiment: GPX4 activity assay in cell lysates (NADPH-coupled)
Assay type: biochemical
Set-up: endogenous in cells; host or cells: A-673 cell lysate
Procedure: Determination of GPX4 activity in cell lysates was performed as previously described by Roveri et al. 1994 with minor modifications. Briefly, the assay measures the consumption of NADPH, which has a characteristic absorbance at 340 nm, over time as a proxy for GPX4 activity. The rationale for this is that as GPX4 reduces phospholipid hydroperoxides, it oxidizes glutathione, which is then regenerated by glutathione reductase at the expense of NADPH. NADPH is added to the assay in excess such that the reduction of oxidized glutathione is not the rate-limiting reaction in the assay. Thus, the resulting reduction in NADPH absorbance over time reflects GPX4 activity.
The GPX4-specific substrate phosphatidylcholine hydroperoxide (PCOOH) was prepared by enzymatic hydroperoxidation. Specifically, 0.3 mM phosphatidylcholines (Sigma-Aldrich) were incubated with 0.7 mg soybean lipoxidase type IV (Sigma-Aldrich) in 22 mL of 0.2 M Tris-HCl pH 8.8 with 3 mM sodium deoxycholate at room temperature under continuous stirring for 30 minutes. A Sep-Pak C18 cartridge (Waters-Millipore) was pre-washed with methanol and equilibrated with water, then the substrate mixture was loaded. The column was washed with 10 volumes of water and PCOOH was eluted with 2 mL of methanol.
To prepare the cell lysate containing native GPX4, A-673 cells were cultured with 20 nM sodium selenite to confluency over two days then harvested and washed with cold PBS. Cells were then resuspended at 10 million cells per 1 mL LCW lysis buffer (0.5% peroxide-free Triton X-100, 0.5% sodium deoxycholate salt, 150 mM NaCl, 20 mM Tris-HCl pH 7.5, 10 mM EDTA, 30 mM sodium pyrophosphate, and complete protease inhibitor cocktail), vortexed for 30 seconds, and incubated on ice for 15 minutes. After lysis, the lysates were centrifuged at 14,000×g and 4° C. for 15 minutes. The supernatants were transferred to new pre-chilled tube and the debris pellet was discarded. The protein concentration in the lysate was determined for normalization using the BCA Protein Assay Kit (Pierce).
To measure GPX4 activity, 50 μL of cell lysate was combined with 200 μL activity assay buffer (0.1% Triton X-100, 100 mM Tris-HCl pH 8.0, 10 mM sodium azide, 5 mM EDTA, 0.6 IU/mL glutathione reductase, 0.5 mM NADPH and 3 mM GSH) and compounds of interest in a clear 96-well plate and incubated at 37° C. for 45 minutes. Compounds were dissolved in DMSO. All conditions were tested in triplicate. PCOOH substrate was added to the mixture to initiate GPX4 activity just before reading the plate. The absorbance of NADPH at 340 nm was monitored kinetically over time for 25 minutes. Buffer-only controls and controls without substrate containing only the methanol vehicle were performed to assess background and baseline signal. GPX4 activity was calculated as previously reported by Stolwijk et al. 2020 and results were analyzed in GraphPad Prism 9.

[1] = 200 μM, generation 1, mean ± s.d., n = 3

Structure (SMILES) | GPX4% inhibition at 200 (μM) [1] [%] | further results
O=C(c1cc2cc(Cl)ccc2[nH]1)n1ccnc1 [QW-002] |  | GPX4% inhibition at 200 (μM) (200 μM, mean ± s.d., n = 3): 18.7 ± 15.8%
O=C(c1cc2cc([N+](=O)[O-])ccc2[nH]1)n1ccnc1 [QW-049] |  | GPX4% inhibition at 200 (μM) (200 μM, mean ± s.d., n = 3): −2.6 ± 14.6%
Cc1ccc2[nH]c(C(=O)n3ccnc3)cc2c1 [QW-056] |  | GPX4% inhibition at 200 (μM) (200 μM, mean ± s.d., n = 3): 32.7 ± 18.4%
O=C(c1c[nH]c2ccccc12)n1ccnc1 [QW-058] |  | GPX4% inhibition at 200 (μM) (200 μM, mean ± s.d., n = 3): 37.8 ± 0.9%
O=C(c1cc2ccccc2[nH]1)n1ccnc1 [QW-064] |  | GPX4% inhibition at 200 (μM) (200 μM, mean ± s.d., n = 3): 31.9 ± 16.6%
C=CC(=O)OCC(C)(C)NC(=O)c1cc2ccccc2[nH]1 [QW-166] | 1.8 ± 8.0 | 
C=CC(=O)OCC(C)(C)NC(=O)c1cc2cc(Cl)ccc2[nH]1 [QW-167] | 7.8 ± 12.8 | 
C=CC(=O)OCC(C)(C)NC(=O)c1cc2c(OC)cccc2[nH]1 [QW-168] | −8.8 ± 10.8 | 
C=CC(=O)OCC(C)(C)NC(=O)c1cc2cc(C)ccc2[nH]1 [QW-170] | 5.3 ± 10.0 | 
C=CC(=O)OCC(C)(C)NC(=O)c1cc2cc([N+](=O)[O-])ccc2[nH]1 [QW-172] | 16.1 ± 16.0 | 
CC(C)(COC(=O)CCl)NC(=O)c1cccs1 [QW-259] | 27.7 ± 26.1 | 
CC(C)(COC(=O)CBr)NC(=O)c1cccs1 [QW-260] | 41.1 ± 4.6 | 
C=CC(=O)OCC(C)(C)NC(=O)c1cccs1 [QW-261] | 23.2 ± 17.0 | 
Cc1onc(C(=O)OCC(C)(C)NC(=O)c2cccs2)c1[N+](=O)[O-] [QW-262] | −0.6 ± 7.8 | 
CC(C)(COC(=O)CBr)NC(=O)Cc1cc2ccccc2[nH]1 [QW-266] | 48.8 ± 3.3 | 
C=CC(=O)OCC(C)(C)NC(=O)Cc1cc2ccccc2[nH]1 [QW-267] | 14.7 ± 5.7 | 
Cc1onc(C(=O)OCC(C)(C)NC(=O)Cc2cc3ccccc3[nH]2)c1[N+](=O)[O-] [QW-268] | −8.0 ± 15.8 | 
CC(C)(COC(=O)CCl)NC(=O)CCc1cc2ccccc2[nH]1 [QW-270] | 65.5 ± 1.6 | 
CC(C)(COC(=O)CBr)NC(=O)CCc1cc2ccccc2[nH]1 [QW-271] | 40.2 ± 5.2 | 
CC(C)(COC(=O)CCl)NC(=O)c1cc2ccccc2s1 [QW-274] | 27.5 ± 4.4 | 
CC(C)(COC(=O)CBr)NC(=O)c1cc2ccccc2s1 [QW-275] | 63.1 ± 3.6 | 
C=CC(=O)OCC(C)(C)NC(=O)c1cc2ccccc2s1 [QW-276] | 5.9 ± 4.4 | 
Cc1onc(C(=O)OCC(C)(C)NC(=O)c2cc3ccccc3s2)c1[N+](=O)[O-] [QW-277] | 12.4 ± 20.1 | 

Structure (SMILES) | GPX4% inhibition at 200 (μM) [1] [%] | further results
CC(C)(COC(=O)CCl)NC(=O)c1c[nH]c2ccccc12 [QW-280] | 75.9 ± 15.5 | GPX4 inhibition (200 μM): 76%
CC(C)(COC(=O)CBr)NC(=O)c1c[nH]c2ccccc12 [QW-281] | 58.7 ± 11.5 | 
C=CC(=O)OCC(C)(C)NC(=O)c1c[nH]c2ccccc12 [QW-282] | 12.7 ± 4.7 | 
Cc1onc(C(=O)OCC(C)(C)NC(=O)c2c[nH]c3ccccc23)c1[N+](=O)[O-] [QW-283] | −6.6 ± 8.5 | 
CC(C)(COC(=O)CCl)NC(=O)c1ccc[nH]1 [QW-290] | 20.6 ± 9.0 | 
CC(C)(COC(=O)CBr)NC(=O)c1ccc[nH]1 [QW-291] | 20.0 ± 4.0 | 
C=CC(=O)OCC(C)(C)NC(=O)c1ccc[nH]1 [QW-292] | 7.9 ± 5.3 | 
Cc1onc(C(=O)OCC(C)(C)NC(=O)c2ccc[nH]2)c1[N+](=O)[O-] [QW-293] | −13.1 ± 14.6 | 
CC(C)(COC(=O)CCl)NC(=O)c1n[nH]c2ccccc12 [QW-296] |  | GPX4% inhibition at 200 (μM) (200 μM, generation 2): 83.1 ± 21.9%
CC(C)(COC(=O)CBr)NC(=O)c1n[nH]c2ccccc12 [QW-297] |  | GPX4% inhibition at 200 (μM) (200 μM, generation 2): 73.1 ± 14.6%
C=CC(=O)OCC(C)(C)NC(=O)c1n[nH]c2ccccc12 [QW-298] |  | GPX4% inhibition at 200 (μM) (200 μM, generation 2): 7.9 ± 8.2%
Cc1onc(C(=O)OCC(C)(C)NC(=O)c2n[nH]c3ccccc23)c1[N+](=O)[O-] [QW-299] |  | GPX4% inhibition at 200 (μM) (200 μM, generation 2): 6.3 ± 4.7%
C=CC(=O)OCCCNC(=O)c1cc2cc(Cl)ccc2[nH]1 [QW-306] | 6.2 ± 7.5 | 
Cn1cc(C(=O)NC(C)(C)COC(=O)CCl)c2ccc(Br)cc21 [QW-325] | 76.6 ± 3.9 | 
COc1ccc2c(C(=O)NC(C)(C)COC(=O)CCl)n[nH]c2c1 [QW-326] |  | GPX4% inhibition at 200 (μM) (200 μM, generation 2): 84.3 ± 8.9%
Cn1nc(C(=O)N2CCN(C(=O)CCl)CC2)c2ccc(Br)cc21 [QW-330] |  | GPX4% inhibition at 200 (μM) (200 μM, generation 2): 33.2 ± 6.8%
Cn1cc(C(=O)NC(C)(C)COC(=O)C#C[Si](C)(C)C)c2ccc(Br)cc21 [QW-337] | 67.2 ± 3.4 | 
Cc1onc(C(=O)OCC(C)(C)NC(=O)c2nn(C)c3ccccc23)c1[N+](=O)[O-] [QW-363] |  | GPX4% inhibition at 200 (μM) (200 μM, generation 2): −15.4 ± 8.4%
C=CC(=O)OCC(C)(C)NC(=O)c1nn(C)c2ccccc12 [QW-366] |  | GPX4% inhibition at 200 (μM) (200 μM, generation 2): −7.3 ± 0.5%
Cn1nc(C(=O)NC(C)(C)COC(=O)C#C[Si](C)(C)C)c2ccccc21 [QW-367] |  | GPX4% inhibition at 200 (μM) (200 μM, generation 2): 7.0 ± 3.9%
Cn1nc(C(=O)N2CCN(C(=O)CCl)CC2)c2ccccc21 [QW-370] |  | GPX4% inhibition at 20 (μM) (generation 2): 0.5 ± 5.4%
Cc1onc(C(=O)N2CCN(C(=O)c3nn(C)c4ccccc34)CC2)c1[N+](=O)[O-] [QW-371] |  | GPX4% inhibition at 20 (μM) (generation 2): 2.9 ± 2.2%
Cn1nc(C(=O)NC(C)(C)COC(=O)C(F)Cl)c2ccccc21 (stereo not drawn) [QW-374] |  | GPX4% inhibition at 20 (μM) (generation 2): 1.6 ± 3.0%

The next lines start with results.

GPX4% inhibition at 200 (μM) [1] [%] | Structure (SMILES) | further results
56.0 ± 7.3 | COc1cccc2[nH]c(C(=O)NC(C)(C)COC(=O)CBr)cc12 [QW-159] | 
33.3 ± 6.0 | CC(C)(COC(=O)CBr)NC(=O)c1cc2ccccc2[nH]1 [QW-160] | 
65.0 ± 7.2 | Cc1ccc2[nH]c(C(=O)NC(C)(C)COC(=O)CBr)cc2c1 [QW-161] | 
103.8 ± 7.6 | COc1ccc2cc(C(=O)NC(C)(C)COC(=O)CBr)[nH]c2c1 [QW-162] | 
73.9 ± 5.3 | CC(C)(COC(=O)CBr)NC(=O)c1cc2cc(Cl)ccc2[nH]1 [QW-165] | 
14.0 ± 8.6 | C=CC(=O)OCC(C)(C)NC(=O)c1cc2ccc(Br)cc2[nH]1 [QW-169] | 
61.2 ± 11.3 | CC(C)(COC(=O)CCl)NC(=O)Cc1cc2ccccc2[nH]1 [QW-265] | 
71.0 ± 22.2 | COc1ccc2cc(C(=O)NC(C)(C)CCOC(=O)CCl)[nH]c2c1 [QW-284] | 
77.9 ± 7.6 | COc1ccc2cc(C(=O)NC(C)(C)CCOC(=O)CBr)[nH]c2c1 [QW-285] | 
11.5 ± 7.1 | C=CC(=O)OCCC(C)(C)NC(=O)c1cc2ccc(OC)cc2[nH]1 [QW-286] | 
3.3 ± 1.2 | C=CC(=O)OCCNC(=O)c1cc2ccc(OC)cc2[nH]1 [QW-301] | 
68.9 ± 1.8 | COc1ccc2cc(C(=O)NCC(C)(C)COC(=O)CCl)[nH]c2c1 [QW-302] | 
78.3 ± 4.3 | O=C(CCl)OCCCNC(=O)c1cc2cc(Cl)ccc2[nH]1 [QW-304] | 
84.3 ± 9.3 | COc1ccc2cc(C(=O)NC(C)(C)COC(=O)CCl)n(C)c2c1 [QW-320] | 
90.3 ± 4.8 | Cn1c(C(=O)NC(C)(C)COC(=O)CCl)cc2ccc(Br)cc21 [QW-321] | 
16.0 ± 4.9 | COc1ccc2[nH]cc(C(=O)NC(C)(C)COC(=O)CCl)c2c1 [QW-322] | 
42.6 ± 7.0 | CC(C)(COC(=O)CCl)NC(=O)c1cc2cc(F)ccc2[nH]1 [QW-338] | 
43.4 ± 11.5 | CC(C)(COC(=O)CCl)NC(=O)c1cc2cc(F)c(F)cc2[nH]1 [QW-339] | 
69.6 ± 6.2 | CC(C)(COC(=O)CCl)NC(=O)c1cc2ccc(F)cc2[nH]1 [QW-353] | 

From patent publication US20250248979A1, “NOVEL GPX4 INHIBITORS AND USES THEREOF” (THE TRUSTEES OF COLUMBIA UNIVERSITY IN THE CITY OF NEW YORK, priority 2022, published 2025)
